The values below come from PubChem BioAssay AID282 (DTP/NCI, 2004).

The test concerns BDF1 mice, L1210 terephthalanilide-resistant leukemia ip, survival T/C. Nature of the test: NCI In Vivo Anticancer Drug Screen. Data for tumor model L1210 Leukemia resistant to A Terephthalanilide; NSC 38280 (intraperitoneal) in B6D2F1 (BDF1) mice. As to conditions: endpoint: mean survival time, higher = longer survival. The protocol: The antitumor activity of compounds was measured in mice bearing transplantable tumors. Survival or tumor size were measured and the results are expressed as the measurement made in the treated group (T) divided by the measurement made in the vehicle treated control group (C). The tumor model used in this assay is L1210 Leukemia resistant to A Terephthalanilide; NSC 38280 (intraperitoneal) in B6D2F1 (BDF1) mice

Where [1] appears, read: dose: 125.0 mg/kg/injection, schedule: Q01DX Z (ip), vehicle: carboxymethylcellulose (CMC).
Setting [2] is: dose: 250.0 mg/kg/injection, schedule: Q01DX Z (ip), vehicle: carboxymethylcellulose (CMC).
Where [3] appears, read: dose: 500.0 mg/kg/injection, schedule: Q01DX Z (ip), vehicle: carboxymethylcellulose (CMC).
Where [4] appears, read: dose: 8.0 mg/kg/injection, schedule: Q01DX010 (ip), vehicle: saline.
The mark [5] stands for this setting: dose: 16.0 mg/kg/injection, schedule: Q01DX010 (ip), vehicle: saline.
The mark [6] stands for this setting: dose: 32.0 mg/kg/injection, schedule: Q01DX010 (ip), vehicle: saline.
[7] abbreviates: dose: 64.0 mg/kg/injection, schedule: Q01DX010 (ip), vehicle: saline.
Setting [8] is: dose: 2.5 mg/kg/injection, schedule: Q01DX010 (ip), vehicle: saline.
Setting [9] is: dose: 5.0 mg/kg/injection, schedule: Q01DX010 (ip), vehicle: saline.
[10] abbreviates: dose: 5.0 mg/kg/injection, schedule: Q01DX Z (ip), vehicle: carboxymethylcellulose (CMC).
Setting [11] is: dose: 10.0 mg/kg/injection, schedule: Q01DX010 (ip), vehicle: saline.
The mark [12] stands for this setting: dose: 20.0 mg/kg/injection, schedule: Q01DX Z (ip), vehicle: carboxymethylcellulose (CMC).
Where [13] appears, read: dose: 15.0 mg/kg/injection, schedule: Q01DX010 (ip), vehicle: saline.
The mark [14] stands for this setting: dose: 20.0 mg/kg/injection, schedule: Q01DX010 (ip), vehicle: saline.

Several values for one entry are separate records, joined by “and”; a condition that tells them apart may be missing. Identical values can stand only once. Toxic doses and inconclusive results are not listed.

`O=c1cn[nH]c(=O)[nH]1`: the T/C is, setting by setting: (dose: 62.0 mg/kg/injection, schedule: Q01DX Z (ip), vehicle: carboxymethylcellulose (CMC)) 101 % of control; (dose: 62.5 mg/kg/injection, schedule: Q01DX010 (ip), vehicle: saline) 97 % of control and 101 % of control; (dose: 125.0 mg/kg/injection, schedule: Q01DX010 (ip), vehicle: saline) 97 % of control and 105 % of control; under setting [1], 101 % of control; (dose: 250.0 mg/kg/injection, schedule: Q01DX010 (ip), vehicle: saline) 106 % of control and 113 % of control; under setting [2], 106 % of control. Moreover, the T/C (dose: 500.0 mg/kg/injection, schedule: Q01DX010 (ip), vehicle: saline) was 123 % of control and 115 % of control; the T/C under setting [3] is 113 % of control.

In the case of `Nc1nc(SCc2ccccc2)c2[nH]cnc2n1`, the T/C under setting [4] was 92 % of control and 104 % of control; the T/C under setting [5] was 104 % of control; the T/C under setting [6] is 115 % of control; the T/C (dose: 62.5 mg/kg/injection, schedule: Q01DX Z (ip), vehicle: carboxymethylcellulose (CMC)) is 111 % of control; the T/C under setting [7] was 95 % of control and 114 % of control; the T/C under setting [1] was 107 % of control.

Take `NC12CC3CC(CC(C3)C1)C2`: the T/C is 108 % of control (dose: 25.0 mg/kg/injection, schedule: Q01DX010 (ip), vehicle: saline); 106 % of control (dose: 50.0 mg/kg/injection, schedule: Q01DX010 (ip), vehicle: saline); 101 % of control (dose: 100.0 mg/kg/injection, schedule: Q01DX010 (ip), vehicle: saline).

`O=C(Nc1ccc(NC(=O)Nc2cccc(C3=NCCN3)c2)cc1)Nc1cccc(C2=NCCN2)c1`: the T/C is 96 % of control (dose: 60.0 mg/kg/injection, schedule: Q01DX Z (ip), vehicle: carboxymethylcellulose (CMC)); 106 % of control (dose: 120.0 mg/kg/injection, schedule: Q01DX Z (ip), vehicle: carboxymethylcellulose (CMC)); 106 % of control (dose: 240.0 mg/kg/injection, schedule: Q01DX Z (ip), vehicle: carboxymethylcellulose (CMC)).

As for `Nc1nc(=S)c2[nH]cnc2[nH]1`, the T/C reads like this: (dose: 0.5 mg/kg/injection, schedule: Q01DX Z (ip), vehicle: carboxymethylcellulose (CMC)) 165 % of control; (dose: 1.0 mg/kg/injection, schedule: Q01DX Z (ip), vehicle: carboxymethylcellulose (CMC)) 158 % of control; (dose: 1.25 mg/kg/injection, schedule: Q01DX010 (ip), vehicle: saline) 156 % of control; under setting [8], 173 % of control; (dose: 2.5 mg/kg/injection, schedule: Q01DX Z (ip), vehicle: carboxymethylcellulose (CMC)) 159 % of control; under setting [9], 108 % of control and 113 % of control. Moreover, the T/C runs as follows: under setting [10], 109 % of control; under setting [11], 90 % of control and 98 % of control; (dose: 10.0 mg/kg/injection, schedule: Q01DX Z (ip), vehicle: carboxymethylcellulose (CMC)) 96 % of control and 116 % of control; (dose: 15.0 mg/kg/injection, schedule: Q01DX Z (ip), vehicle: carboxymethylcellulose (CMC)) 106 % of control; under setting [12], 96 % of control and 101 % of control; (dose: 31.0 micrograms/kg/injection, schedule: Q01DX Z (ip), vehicle: carboxymethylcellulose (CMC)) 107 % of control. Under “dose: 125.0 micrograms/kg/injection, schedule: Q01DX Z (ip), vehicle: carboxymethylcellulose (CMC)”, the T/C was 110 % of control.

Take `O=C(Nc1ccc(C(=O)Nc2ccc(C3=NCCCN3)cc2)cc1)Nc1ccc(C2=NCCCN2)cc1`: the T/C runs as follows: (dose: 1.88 mg/kg/injection, schedule: Q01DX010 (ip), vehicle: saline) 93 % of control and 108 % of control; (dose: 3.75 mg/kg/injection, schedule: Q01DX010 (ip), vehicle: saline) 95 % of control and 114 % of control; (dose: 7.5 mg/kg/injection, schedule: Q01DX010 (ip), vehicle: saline) 122 % of control and 119 % of control; under setting [13], 117 % of control.

On to `CSc1ncnc2c1ncn2C1OC(CO)C(O)C1O` (stereo not given), for which the T/C reads like this: (dose: 4.0 mg/kg/injection, schedule: Q01DX010 (ip), vehicle: saline) 105 % of control; (dose: 5.5 mg/kg/injection, schedule: Q01DX Z (ip), vehicle: saline) 117 % of control; under setting [4], 116 % of control; under setting [13], 151 % of control; under setting [5], 122 % of control; under setting [14], 162 % of control. The T/C is, setting by setting: (dose: 37.5 mg/kg/injection, schedule: Q01DX Z (ip), vehicle: saline) 154 % of control; (dose: 50.0 mg/kg/injection, schedule: Q01DX Z (ip), vehicle: saline) 101 % of control; (dose: 75.0 mg/kg/injection, schedule: Q01DX Z (ip), vehicle: saline) 88 % of control.

`C[C@]12C=CC(=O)C=C1CC[C@@H]1[C@@H]2[C@@H](O)C[C@@]2(C)[C@H]1CC[C@]2(O)C(=O)CO`: the T/C was 100 % of control (dose: 12.5 mg/kg/injection, schedule: Q01DX010 (sc), vehicle: steriod suspending solution); 100 % of control (dose: 25.0 mg/kg/injection, schedule: Q01DX010 (sc), vehicle: steriod suspending solution); 98 % of control (dose: 50.0 mg/kg/injection, schedule: Q01DX010 (sc), vehicle: steriod suspending solution); 95 % of control (dose: 100.0 mg/kg/injection, schedule: Q01DX010 (sc), vehicle: steriod suspending solution).

`CC(=O)OCC1OC(n2ncc(=O)[nH]c2=O)C(OC(C)=O)C1OC(C)=O` (stereo not given): the T/C under setting [1] was 183 % of control; the T/C under setting [2] is 206 % of control; the T/C (dose: 375.0 mg/kg/injection, schedule: Q01DX Z (ip), vehicle: carboxymethylcellulose (CMC)) was 214 % of control; the T/C under setting [3] is 168 % of control.

`CN(C)c1ccc(Nc2c3ccccc3nc3ccccc23)cc1`: the T/C reads like this: (dose: 36.0 mg/kg/injection, schedule: Q01DX010 (ip), vehicle: saline) 108 % of control; (dose: 54.0 mg/kg/injection, schedule: Q01DX010 (ip), vehicle: saline) 102 % of control and 111 % of control; (dose: 80.0 mg/kg/injection, schedule: Q01DX010 (ip), vehicle: saline) 97 % of control and 109 % of control; (dose: 120.0 mg/kg/injection, schedule: Q01DX010 (ip), vehicle: saline) 119 % of control.

Regarding `O=C(Nc1ccc(C2=NCCCN2)cc1)c1ccc(C(=O)Nc2ccc(C3=NCCCN3)cc2)cc1`, the T/C (dose: 1.0 mg/kg/injection, schedule: Q01DX010 (ip), vehicle: other) is 113 % of control and 114 % of control; the T/C (dose: 2.0 mg/kg/injection, schedule: Q01DX010 (ip), vehicle: other) was 116 % of control; the T/C (dose: 4.0 mg/kg/injection, schedule: Q01DX010 (ip), vehicle: other) is 123 % of control and 120 % of control; the T/C (dose: 8.0 mg/kg/injection, schedule: Q01DX010 (ip), vehicle: other) was 90 % of control and 95 % of control.

With `S=P(N1CCOCC1)(N1CC1)N1CC1`, the T/C (dose: 1.87 mg/kg/injection, schedule: Q01DX Z (ip), vehicle: carboxymethylcellulose (CMC)) was 98 % of control and 111 % of control; the T/C under setting [8] was 92 % of control and 101 % of control; the T/C (dose: 3.75 mg/kg/injection, schedule: Q01DX Z (ip), vehicle: carboxymethylcellulose (CMC)) is 107 % of control and 115 % of control; the T/C under setting [9] is 97 % of control and 102 % of control; the T/C under setting [10] was 98 % of control and 114 % of control; the T/C under setting [11] is 99 % of control and 100 % of control. Moreover, the T/C reads like this: under setting [14], 101 % of control; under setting [12], 159 % of control; (dose: 40.0 mg/kg/injection, schedule: Q01DX Z (ip), vehicle: carboxymethylcellulose (CMC)) 104 % of control.

Take `O=C(Nc1ccc(C2=NCCN2)cc1)c1cccc(C(=O)Nc2ccc(C3=NCCN3)cc2)c1`: the T/C under setting [4] is 94 % of control and 101 % of control; the T/C under setting [5] is 105 % of control and 110 % of control; the T/C under setting [6] is 106 % of control and 110 % of control; the T/C under setting [7] was 120 % of control.

Turning to `CN(C)CC(=O)c1ccc(O)c(O)c1`, the T/C is 104 % of control (dose: 134.0 mg/kg/injection, schedule: Q01DX010 (ip), vehicle: saline); 114 % of control (dose: 135.0 mg/kg/injection, schedule: Q01DX010 (ip), vehicle: saline); 104 % of control and 105 % of control (dose: 200.0 mg/kg/injection, schedule: Q01DX010 (ip), vehicle: saline); 120 % of control and 97 % of control (dose: 300.0 mg/kg/injection, schedule: Q01DX010 (ip), vehicle: saline); 121 % of control and 110 % of control (dose: 450.0 mg/kg/injection, schedule: Q01DX010 (ip), vehicle: saline).
